Test results from EP4722201A1, “3-PHENYLISOXAZOLINE-5-CARBOXAMIDE COMPOUND, AND PREPARATION METHOD THEREFOR, HERBICIDAL COMPOSITION THEREOF AND USE THEREOF” (Jiangsu Flag Chemical Industry Co., Ltd, priority 2023, dated 2024).

Key:
Assay in all cases: Indoor herbicide activity determination, Seed Treatment; pre-emergence (soil spray)
Assay type in all cases: in vivo
[1] = test system: Alopecurus japonicus
Procedure, shortened: (§1)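 Weed seeds sown in 7 cm pots of sandy nutrient soil (pH 6.1, 1% organic matter), kept 24 h in a constant-temperature lit room, then soil sprayed by traveling spray tower (flow 390 mL/min). Fresh-weight inhibition % versus untreated controls scored 21 days later.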

[2] = test system: Cyperus iria; settings: read-out: Herbicidal activities (inhibition rate) Cyperus iria; for inhibition at 120 g/ha: 120 g a.i./ha; for inhibition at 60 g/ha: 60 g a.i./ha
Procedure, shortened: as §1

[3] = test system: Aegilops tauschii; settings: read-out: Herbicidal activities (inhibition rate) Aegilops tauschii; for inhibition at 120 g/ha: 120 g a.i./ha; for inhibition at 60 g/ha: 60 g a.i./ha
Procedure, shortened: as §1

[4] = test system: Digitaria sanguinalis; settings: read-out: Herbicidal activities (inhibition rate) Digitaria sanguinalis; for inhibition at 120 g/ha: 120 g a.i./ha; for inhibition at 60 g/ha: 60 g a.i./ha
Procedure, shortened: as §1

[5] = test system: Alopecurus myosuroides
Procedure, shortened: as §1

[6] = test system: Leptochloa chinensis
Procedure, shortened: as §1

[7] = test system: Lolium multiflorum
Procedure, shortened: as §1

[8] = test system: Eleusine indica; settings: Dosage 120 g a.i./ha
Procedure, shortened: as §1

[9] = test system: Eclipta prostrata; settings: 60 g a.i./ha, read-out: Herbicidal activities (inhibition rate) Eclipta prostrata
Procedure, shortened: as §1

Row | SMILES | Herbicidal activities, Alopecurus japonicus (inhibition rate class) ([1]; Dosage 240 g a.i./ha) | inhibition at 120 g/ha [2] | inhibition at 120 g/ha [3] | inhibition at 120 g/ha [4] | Herbicidal activities, Alopecurus myosuroides (inhibition rate class) ([5]; Dosage 240 g a.i./ha) | Herbicidal activities, Leptochloa chinensis (inhibition rate class) ([6]; Dosage 240 g a.i./ha) | Herbicidal activities, Lolium multiflorum (inhibition rate class) ([7]; Dosage 240 g a.i./ha) | Herbicidal activities, Alopecurus japonicus (inhibition rate class) ([1]; Dosage 120 g a.i./ha) | inhibition at 60 g/ha [3] | inhibition at 60 g/ha [4] | Herbicidal activities, Alopecurus myosuroides (inhibition rate class) ([5]; Dosage 120 g a.i./ha) | Herbicidal activities, Leptochloa chinensis (inhibition rate class) ([6]; Dosage 120 g a.i./ha) | Herbicidal activities, Lolium multiflorum (inhibition rate class) ([7]; Dosage 120 g a.i./ha) | Herbicidal activities, Eleusine indica (inhibition rate class) [8] | inhibition at 60 g/ha [2] | also measured
1 | COC(=O)[C@H]1C[C@@H](NC(=O)C2(C)CC(c3cc(F)cc(OC(F)(F)F)c3)=NO2)CO1 (mixture of isomers) [I-380] | A (A indicates that the inhibition rate was greater than or equal to 80% to 100%) | 80 to 100% | 80 to 100% | 80 to 100% | A (A indicates that the inhibition rate was greater than or equal to 80% to 100%) | A (A indicates that the inhibition rate was greater than or equal to 80% to 100%) | A (A indicates that the inhibition rate was greater than or equal to 80% to 100%) |  |  |  |  |  |  |  |  | 
2 | C=C[C@]1(C(=O)N[C@H]2C[C@@H](C(=O)OCC(F)(F)F)C2)CC(c2cc(F)cc(F)c2)=NO1 [I-15] |  |  |  |  |  |  |  | A (A indicates that the inhibition rate was greater than or equal to 80% to 100%) | 80 to 100% | 60 to 80% | A (A indicates that the inhibition rate was greater than or equal to 80% to 100%) | A (A indicates that the inhibition rate was greater than or equal to 80% to 100%) | A (A indicates that the inhibition rate was greater than or equal to 80% to 100%) | A (A indicates that the inhibition rate was greater than or equal to 80% to 100%) |  | 
3 | C=C[C@]1(C(=O)N[C@H]2C[C@@H](C(=O)O[C@H](C)COC)C2)CC(c2cc(F)cc(F)c2)=NO1 [I-19] |  |  |  |  |  |  |  | A (A indicates that the inhibition rate was greater than or equal to 80% to 100%) | 80 to 100% | 80 to 100% | A (A indicates that the inhibition rate was greater than or equal to 80% to 100%) | A (A indicates that the inhibition rate was greater than or equal to 80% to 100%) | A (A indicates that the inhibition rate was greater than or equal to 80% to 100%) | A (A indicates that the inhibition rate was greater than or equal to 80% to 100%) | 60 to 80% | 
4 | CC[C@@H](C)OC(=O)[C@H]1C[C@@H](NC(=O)[C@@]2(C)CC(c3cc(F)cc(F)c3)=NO2)C1 [I-128] |  |  |  |  |  |  |  | A (A indicates that the inhibition rate was greater than or equal to 80% to 100%) | 80 to 100% | 60 to 80% | A (A indicates that the inhibition rate was greater than or equal to 80% to 100%) | A (A indicates that the inhibition rate was greater than or equal to 80% to 100%) | A (A indicates that the inhibition rate was greater than or equal to 80% to 100%) | A (A indicates that the inhibition rate was greater than or equal to 80% to 100%) |  | 
5 | CC[C@H](C)OC(=O)[C@H]1C[C@@H](NC(=O)[C@@]2(C)CC(c3cc(F)cc(F)c3)=NO2)C1 [I-129] |  |  |  |  |  |  |  | A (A indicates that the inhibition rate was greater than or equal to 80% to 100%) | 80 to 100% | 60 to 80% | A (A indicates that the inhibition rate was greater than or equal to 80% to 100%) | B (B indicates that the inhibition rate was greater than or equal to 60% to less than 80%) | A (A indicates that the inhibition rate was greater than or equal to 80% to 100%) | A (A indicates that the inhibition rate was greater than or equal to 80% to 100%) |  | 
6 | CSCCOC(=O)C1CC(NC(=O)C2(C)CC(c3cc(F)cc(OC(F)(F)F)c3)=NO2)CO1 (stereo not drawn) [I-382] | A (A indicates that the inhibition rate was greater than or equal to 80% to 100%) | 80 to 100% | 80 to 100% | 80 to 100% | A (A indicates that the inhibition rate was greater than or equal to 80% to 100%) | A (A indicates that the inhibition rate was greater than or equal to 80% to 100%) | A (A indicates that the inhibition rate was greater than or equal to 80% to 100%) |  |  |  |  |  |  |  |  | 
7 | C[S+]([O-])CCOC(=O)C1CC(NC(=O)C2(C)CC(c3cc(F)cc(OC(F)(F)F)c3)=NO2)CO1 (stereo not drawn) [I-383] | A (A indicates that the inhibition rate was greater than or equal to 80% to 100%) | 60 to 80% | 80 to 100% | 80 to 100% | A (A indicates that the inhibition rate was greater than or equal to 80% to 100%) | A (A indicates that the inhibition rate was greater than or equal to 80% to 100%) | A (A indicates that the inhibition rate was greater than or equal to 80% to 100%) |  |  |  |  |  |  |  |  | 
8 | CC1(C(=O)NC2COC(C(=O)OCCS(C)(=O)=O)C2)CC(c2cc(F)cc(OC(F)(F)F)c2)=NO1 (stereo not drawn) [I-384] | A (A indicates that the inhibition rate was greater than or equal to 80% to 100%) | 60 to 80% | 80 to 100% | 80 to 100% | A (A indicates that the inhibition rate was greater than or equal to 80% to 100%) | A (A indicates that the inhibition rate was greater than or equal to 80% to 100%) | A (A indicates that the inhibition rate was greater than or equal to 80% to 100%) |  |  |  |  |  |  |  |  | 
9 | COC(=O)C1CC(NC(=O)C2(C)CC(c3cc(F)cc(OC(F)F)c3)=NO2)CO1 (stereo not drawn) [I-385] | A (A indicates that the inhibition rate was greater than or equal to 80% to 100%) |  | 80 to 100% | 60 to 80% | A (A indicates that the inhibition rate was greater than or equal to 80% to 100%) | A (A indicates that the inhibition rate was greater than or equal to 80% to 100%) | B (B indicates that the inhibition rate was greater than or equal to 60% to less than 80%) |  |  |  |  |  |  |  |  | 
10 | C=C[C@]1(C(=O)N[C@H]2C=C[C@@H](C(=O)OCCC)C2)CC(c2cc(F)cc(C(F)(F)F)c2)=NO1 [I-437] |  |  |  |  |  |  |  | A (A indicates that the inhibition rate was greater than or equal to 80% to 100%) |  | 80 to 100% | A (A indicates that the inhibition rate was greater than or equal to 80% to 100%) | A (A indicates that the inhibition rate was greater than or equal to 80% to 100%) | A (A indicates that the inhibition rate was greater than or equal to 80% to 100%) | A (A indicates that the inhibition rate was greater than or equal to 80% to 100%) | 80 to 100% | inhibition at 60 g/ha [9]: 60 to 80%
11 | C=C[C@]1(C(=O)N[C@H]2C=C[C@@H](C(=O)O[C@H](C)COC)C2)CC(c2cc(F)cc(OC(F)(F)F)c2)=NO1 [I-459] |  |  |  |  |  |  |  |  |  | 60 to 80% |  |  |  |  | 60 to 80% | Herbicidal activity (inhibition rate class), Alopecurus japonicus ([1]; Dosage 120 g a.i./ha): A (A indicates that the inhibition rate was greater than or equal to 80% to 100%); inhibition at 60 g/ha [9]: 60 to 80%; Herbicidal activity (inhibition rate class), Alopecurus myosuroides ([5]; Dosage 120 g a.i./ha): A (A indicates that the inhibition rate was greater than or equal to 80% to 100%); Herbicidal activity (inhibition rate class), Leptochloa chinensis ([6]; Dosage 120 g a.i./ha): A (A indicates that the inhibition rate was greater than or equal to 80% to 100%); Herbicidal activity (inhibition rate class), Lolium multiflorum ([7]; Dosage 120 g a.i./ha): A (A indicates that the inhibition rate was greater than or equal to 80% to 100%); Herbicidal activity (inhibition rate class), Eleusine indica [8]: A (A indicates that the inhibition rate was greater than or equal to 80% to 100%)
12 | O=C(OCC1CCCC1)[C@@H]1C=C[C@H](NC(=O)[C@@]2(C(F)(F)F)CC(c3cc(F)cc(C(F)(F)F)c3)=NO2)C1 [I-519] |  |  |  |  |  |  |  |  |  | 80 to 100% |  |  |  |  | 80 to 100% | Herbicidal activity (inhibition rate class), Alopecurus japonicus ([1]; Dosage 120 g a.i./ha): A (A indicates that the inhibition rate was greater than or equal to 80% to 100%); inhibition at 60 g/ha [9]: 80 to 100%; Herbicidal activity (inhibition rate class), Alopecurus myosuroides ([5]; Dosage 120 g a.i./ha): A (A indicates that the inhibition rate was greater than or equal to 80% to 100%); Herbicidal activity (inhibition rate class), Leptochloa chinensis ([6]; Dosage 120 g a.i./ha): A (A indicates that the inhibition rate was greater than or equal to 80% to 100%); Herbicidal activity (inhibition rate class), Lolium multiflorum ([7]; Dosage 120 g a.i./ha): A (A indicates that the inhibition rate was greater than or equal to 80% to 100%); Herbicidal activity (inhibition rate class), Eleusine indica [8]: A (A indicates that the inhibition rate was greater than or equal to 80% to 100%)
